The source of these data is ChEMBL document CHEMBL5291721, “A preclinical secondary pharmacology resource illuminates target-adverse drug reaction associations of marketed drugs” (Nat Commun, 2023).

For experiment [1], the target named is Vascular endothelial growth factor receptor 2 (Homo sapiens, UniProt P35968). Type of experiment: functional.
In experiment [2] the target is Adenosine receptor A2a (Homo sapiens, UniProt P29274).
In experiment [3] the target is T1, Adenosine receptor A3 (Homo sapiens, UniProt P0DMS8).
T1 sequence (P0DMS8 whole entry): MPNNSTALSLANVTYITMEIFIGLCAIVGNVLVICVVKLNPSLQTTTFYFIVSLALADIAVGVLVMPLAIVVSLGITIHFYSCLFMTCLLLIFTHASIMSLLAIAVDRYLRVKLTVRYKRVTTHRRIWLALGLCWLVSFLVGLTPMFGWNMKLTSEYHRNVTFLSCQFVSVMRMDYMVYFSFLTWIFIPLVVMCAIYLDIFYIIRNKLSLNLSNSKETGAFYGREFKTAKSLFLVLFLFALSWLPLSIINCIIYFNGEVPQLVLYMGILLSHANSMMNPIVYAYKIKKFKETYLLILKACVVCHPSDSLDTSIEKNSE

Experiment [4] concerns the target T2, Alpha-1A adrenergic receptor (Homo sapiens, UniProt P35348).
T2 sequence (P35348 whole entry): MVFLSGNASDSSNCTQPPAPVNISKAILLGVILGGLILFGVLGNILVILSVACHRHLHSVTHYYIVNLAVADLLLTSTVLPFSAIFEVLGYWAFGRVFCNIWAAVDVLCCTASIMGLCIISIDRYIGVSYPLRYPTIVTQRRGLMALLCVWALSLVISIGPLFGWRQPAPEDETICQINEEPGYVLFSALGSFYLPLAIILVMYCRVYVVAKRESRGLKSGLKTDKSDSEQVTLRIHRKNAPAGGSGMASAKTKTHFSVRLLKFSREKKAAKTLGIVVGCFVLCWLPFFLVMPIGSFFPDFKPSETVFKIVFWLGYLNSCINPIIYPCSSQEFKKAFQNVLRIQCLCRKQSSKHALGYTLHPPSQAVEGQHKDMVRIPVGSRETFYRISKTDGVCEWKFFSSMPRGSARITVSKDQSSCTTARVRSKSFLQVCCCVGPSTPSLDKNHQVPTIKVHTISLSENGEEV
Type of experiment: functional, cell-based.

For experiment [5], the target named is Beta-2 adrenergic receptor (Homo sapiens, UniProt P07550).
Chain of Beta-2 adrenergic receptor (P07550 whole entry): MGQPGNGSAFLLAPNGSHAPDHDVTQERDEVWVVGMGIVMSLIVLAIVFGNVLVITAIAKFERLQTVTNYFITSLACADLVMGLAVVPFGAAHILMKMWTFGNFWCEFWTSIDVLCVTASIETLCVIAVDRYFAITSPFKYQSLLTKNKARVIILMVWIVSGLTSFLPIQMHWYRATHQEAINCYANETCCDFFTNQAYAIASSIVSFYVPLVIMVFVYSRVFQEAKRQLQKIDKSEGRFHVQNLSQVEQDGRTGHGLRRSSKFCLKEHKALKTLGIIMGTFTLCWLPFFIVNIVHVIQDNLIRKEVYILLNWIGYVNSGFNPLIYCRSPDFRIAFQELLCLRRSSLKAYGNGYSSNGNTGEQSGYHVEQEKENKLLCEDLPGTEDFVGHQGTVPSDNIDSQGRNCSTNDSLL
The target of experiment [6] is Vasopressin V1a receptor (Homo sapiens, UniProt P37288).
Chain of Vasopressin V1a receptor (P37288 whole entry): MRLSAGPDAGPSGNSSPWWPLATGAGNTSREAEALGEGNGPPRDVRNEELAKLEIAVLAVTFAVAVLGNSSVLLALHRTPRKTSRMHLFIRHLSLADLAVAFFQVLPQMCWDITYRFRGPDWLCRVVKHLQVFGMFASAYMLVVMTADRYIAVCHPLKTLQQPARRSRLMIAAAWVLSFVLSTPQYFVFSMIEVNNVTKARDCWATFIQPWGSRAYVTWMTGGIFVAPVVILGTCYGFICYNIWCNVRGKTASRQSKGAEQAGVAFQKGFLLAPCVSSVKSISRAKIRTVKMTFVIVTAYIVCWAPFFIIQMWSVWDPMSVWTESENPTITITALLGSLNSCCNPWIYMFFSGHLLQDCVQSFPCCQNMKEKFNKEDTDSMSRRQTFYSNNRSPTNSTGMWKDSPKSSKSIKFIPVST
Experiment [7] concerns the target T3, B2 bradykinin receptor (Homo sapiens, UniProt P30411).
T3 sequence (P30411 whole entry): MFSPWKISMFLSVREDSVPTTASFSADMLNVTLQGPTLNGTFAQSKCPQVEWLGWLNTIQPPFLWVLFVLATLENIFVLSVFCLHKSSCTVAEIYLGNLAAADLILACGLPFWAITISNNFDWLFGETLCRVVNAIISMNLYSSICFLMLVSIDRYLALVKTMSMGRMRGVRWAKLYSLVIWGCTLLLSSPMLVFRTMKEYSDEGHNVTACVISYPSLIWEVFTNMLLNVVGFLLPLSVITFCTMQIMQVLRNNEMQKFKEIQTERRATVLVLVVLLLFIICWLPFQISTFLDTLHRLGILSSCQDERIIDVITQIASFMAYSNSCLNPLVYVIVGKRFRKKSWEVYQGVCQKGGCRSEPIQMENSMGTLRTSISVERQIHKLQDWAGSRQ

In experiment [8] the target is T4, Gastrin/cholecystokinin type B receptor (Homo sapiens, UniProt P32239).
T4 sequence (P32239 whole entry): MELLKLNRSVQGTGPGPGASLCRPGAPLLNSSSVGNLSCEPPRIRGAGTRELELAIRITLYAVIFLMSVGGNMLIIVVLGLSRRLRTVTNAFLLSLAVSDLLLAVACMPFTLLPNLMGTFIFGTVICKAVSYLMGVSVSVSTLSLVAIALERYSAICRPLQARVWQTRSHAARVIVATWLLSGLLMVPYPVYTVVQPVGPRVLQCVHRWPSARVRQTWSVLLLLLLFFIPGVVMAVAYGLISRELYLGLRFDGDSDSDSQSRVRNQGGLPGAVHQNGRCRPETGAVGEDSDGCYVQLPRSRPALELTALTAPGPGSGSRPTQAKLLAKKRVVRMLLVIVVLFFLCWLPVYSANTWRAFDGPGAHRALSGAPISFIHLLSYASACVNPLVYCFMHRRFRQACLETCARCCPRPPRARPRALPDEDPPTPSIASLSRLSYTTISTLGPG

The target in experiment [9] is T5, Muscarinic acetylcholine receptor M2 (Homo sapiens, UniProt P08172).
T5 sequence (P08172 whole entry): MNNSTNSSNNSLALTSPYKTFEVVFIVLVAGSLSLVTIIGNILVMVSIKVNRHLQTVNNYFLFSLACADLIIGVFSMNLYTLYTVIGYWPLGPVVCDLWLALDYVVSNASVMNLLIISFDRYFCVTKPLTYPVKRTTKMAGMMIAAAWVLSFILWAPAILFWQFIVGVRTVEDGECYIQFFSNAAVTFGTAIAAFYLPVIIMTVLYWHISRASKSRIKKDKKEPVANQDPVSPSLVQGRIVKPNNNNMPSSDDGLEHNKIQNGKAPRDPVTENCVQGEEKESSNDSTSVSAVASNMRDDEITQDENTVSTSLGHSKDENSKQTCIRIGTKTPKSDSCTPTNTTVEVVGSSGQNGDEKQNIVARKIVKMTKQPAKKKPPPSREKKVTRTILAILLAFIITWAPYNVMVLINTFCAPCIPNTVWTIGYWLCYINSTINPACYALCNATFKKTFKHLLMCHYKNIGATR
Type of experiment: functional, cell-based.

In experiment [10] the target is D(1A) dopamine receptor (Homo sapiens, UniProt P21728). Type of experiment: functional, cell-based.
Chain of D(1A) dopamine receptor (P21728 whole entry): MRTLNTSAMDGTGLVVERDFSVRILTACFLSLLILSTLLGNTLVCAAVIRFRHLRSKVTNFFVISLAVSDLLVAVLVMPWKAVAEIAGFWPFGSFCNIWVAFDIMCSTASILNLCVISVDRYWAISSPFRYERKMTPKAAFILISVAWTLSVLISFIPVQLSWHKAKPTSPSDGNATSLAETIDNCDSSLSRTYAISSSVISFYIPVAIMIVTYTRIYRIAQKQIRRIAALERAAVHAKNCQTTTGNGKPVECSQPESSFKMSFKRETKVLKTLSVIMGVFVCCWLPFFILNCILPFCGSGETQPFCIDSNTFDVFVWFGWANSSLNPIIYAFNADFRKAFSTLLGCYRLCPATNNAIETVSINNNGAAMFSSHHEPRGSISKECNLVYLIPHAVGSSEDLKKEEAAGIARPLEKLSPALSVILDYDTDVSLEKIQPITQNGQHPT
The target in experiment [11] is 5-hydroxytryptamine receptor 2B (Homo sapiens, UniProt P41595). In kind it is functional, cell-based.
Chain of 5-hydroxytryptamine receptor 2B (P41595 whole entry): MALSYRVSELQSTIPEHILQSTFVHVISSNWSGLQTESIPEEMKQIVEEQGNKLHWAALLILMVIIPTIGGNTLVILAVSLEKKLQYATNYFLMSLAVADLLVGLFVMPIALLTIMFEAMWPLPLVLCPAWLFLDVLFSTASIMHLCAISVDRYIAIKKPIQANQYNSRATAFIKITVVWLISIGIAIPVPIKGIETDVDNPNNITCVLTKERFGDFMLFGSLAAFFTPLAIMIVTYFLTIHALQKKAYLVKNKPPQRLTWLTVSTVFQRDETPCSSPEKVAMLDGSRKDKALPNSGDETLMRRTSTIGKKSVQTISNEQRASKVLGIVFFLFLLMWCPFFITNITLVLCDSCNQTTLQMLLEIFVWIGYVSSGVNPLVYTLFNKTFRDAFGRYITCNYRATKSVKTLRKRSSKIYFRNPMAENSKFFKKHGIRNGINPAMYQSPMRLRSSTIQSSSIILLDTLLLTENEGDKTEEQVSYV
In experiment [12] the target is Kappa-type opioid receptor (Homo sapiens, UniProt P41145).
Chain of Kappa-type opioid receptor (P41145 whole entry): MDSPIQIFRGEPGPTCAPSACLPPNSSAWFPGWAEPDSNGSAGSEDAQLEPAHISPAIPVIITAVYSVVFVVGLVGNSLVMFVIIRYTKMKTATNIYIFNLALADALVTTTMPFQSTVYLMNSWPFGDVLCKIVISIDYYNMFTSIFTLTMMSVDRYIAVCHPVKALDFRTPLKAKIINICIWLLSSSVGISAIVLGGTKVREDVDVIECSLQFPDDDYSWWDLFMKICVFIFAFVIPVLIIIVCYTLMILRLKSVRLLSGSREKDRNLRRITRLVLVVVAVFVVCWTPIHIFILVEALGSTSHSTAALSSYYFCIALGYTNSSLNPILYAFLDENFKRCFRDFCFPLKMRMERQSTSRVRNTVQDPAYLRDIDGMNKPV
Experiment [13] has as its target T6, Thromboxane A2 receptor (Homo sapiens, UniProt P21731).
T6 sequence (P21731 whole entry): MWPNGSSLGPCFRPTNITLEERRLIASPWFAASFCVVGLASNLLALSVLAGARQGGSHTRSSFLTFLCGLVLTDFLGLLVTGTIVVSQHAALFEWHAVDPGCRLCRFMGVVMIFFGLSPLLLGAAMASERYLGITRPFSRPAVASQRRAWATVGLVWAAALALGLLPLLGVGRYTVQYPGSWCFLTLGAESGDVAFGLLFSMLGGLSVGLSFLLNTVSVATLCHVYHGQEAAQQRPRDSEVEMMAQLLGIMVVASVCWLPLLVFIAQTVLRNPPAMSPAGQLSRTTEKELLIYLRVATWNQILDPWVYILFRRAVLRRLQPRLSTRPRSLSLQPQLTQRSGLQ

Bounds are passed on as bounds.

For orientation: AC50 means the midpoint of the concentration-response curve, whichever way the signal moves.
Note: assay procedure not described here.

Chain of Adenosine receptor A2a (P29274 whole entry): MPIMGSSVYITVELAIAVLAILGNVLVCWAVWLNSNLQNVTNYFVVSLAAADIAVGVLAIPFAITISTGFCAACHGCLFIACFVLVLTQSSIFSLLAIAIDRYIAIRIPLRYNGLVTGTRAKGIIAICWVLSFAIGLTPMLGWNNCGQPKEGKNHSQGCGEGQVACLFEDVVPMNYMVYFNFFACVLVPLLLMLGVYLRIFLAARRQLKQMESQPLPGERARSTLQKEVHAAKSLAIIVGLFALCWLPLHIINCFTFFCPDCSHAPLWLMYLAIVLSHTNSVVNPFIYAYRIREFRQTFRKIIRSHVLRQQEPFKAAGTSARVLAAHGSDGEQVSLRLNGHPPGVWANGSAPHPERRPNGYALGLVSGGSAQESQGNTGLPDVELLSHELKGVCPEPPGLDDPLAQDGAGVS
Chain of Vascular endothelial growth factor receptor 2 (P35968 whole entry): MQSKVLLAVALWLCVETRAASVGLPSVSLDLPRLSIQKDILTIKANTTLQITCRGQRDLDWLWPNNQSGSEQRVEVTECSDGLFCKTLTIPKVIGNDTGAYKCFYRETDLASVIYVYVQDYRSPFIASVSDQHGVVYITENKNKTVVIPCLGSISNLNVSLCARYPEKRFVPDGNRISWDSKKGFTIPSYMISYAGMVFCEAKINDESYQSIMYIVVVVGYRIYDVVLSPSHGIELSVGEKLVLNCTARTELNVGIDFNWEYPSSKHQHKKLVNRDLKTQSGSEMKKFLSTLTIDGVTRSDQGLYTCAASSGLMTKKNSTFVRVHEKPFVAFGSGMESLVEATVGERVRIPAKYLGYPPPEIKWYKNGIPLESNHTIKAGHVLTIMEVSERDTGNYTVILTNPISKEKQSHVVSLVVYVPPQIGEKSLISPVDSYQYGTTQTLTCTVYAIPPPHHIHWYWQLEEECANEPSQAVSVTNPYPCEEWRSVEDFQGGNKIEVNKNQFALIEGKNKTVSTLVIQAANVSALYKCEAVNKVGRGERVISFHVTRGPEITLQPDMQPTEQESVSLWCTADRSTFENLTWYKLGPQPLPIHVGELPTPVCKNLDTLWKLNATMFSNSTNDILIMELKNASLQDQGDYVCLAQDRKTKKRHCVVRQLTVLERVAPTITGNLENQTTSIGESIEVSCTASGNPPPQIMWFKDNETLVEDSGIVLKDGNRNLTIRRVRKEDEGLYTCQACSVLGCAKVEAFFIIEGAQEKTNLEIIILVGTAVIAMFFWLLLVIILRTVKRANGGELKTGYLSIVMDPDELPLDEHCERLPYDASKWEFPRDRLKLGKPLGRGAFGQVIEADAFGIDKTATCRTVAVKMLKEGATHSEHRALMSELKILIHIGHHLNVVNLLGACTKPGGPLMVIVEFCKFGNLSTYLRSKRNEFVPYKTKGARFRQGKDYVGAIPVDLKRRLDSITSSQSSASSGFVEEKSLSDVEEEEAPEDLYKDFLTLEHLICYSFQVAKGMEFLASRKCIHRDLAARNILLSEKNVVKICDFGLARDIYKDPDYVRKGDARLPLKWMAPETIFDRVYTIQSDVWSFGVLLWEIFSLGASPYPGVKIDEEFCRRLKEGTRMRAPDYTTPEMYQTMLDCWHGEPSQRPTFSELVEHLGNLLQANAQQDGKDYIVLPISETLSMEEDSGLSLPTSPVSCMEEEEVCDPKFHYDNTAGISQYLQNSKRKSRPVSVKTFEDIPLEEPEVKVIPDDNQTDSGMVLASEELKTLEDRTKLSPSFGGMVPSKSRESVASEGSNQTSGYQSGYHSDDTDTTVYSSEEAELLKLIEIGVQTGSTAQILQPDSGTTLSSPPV

`CC[C@@H]1C[C@]1(NC(=O)[C@@H]1C[C@@H]2CN1C(=O)[C@H](C(C)(C)C)NC(=O)OCC(C)(C)CCCCc1cccc3c1CN(C3)C(=O)O2)C(=O)NS(=O)(=O)C1CC1`: the AC50 in experiment [1] is 16.3 µM.
Turning to `CC(=O)NCCCCCC(=O)O` [ACEXAMIC ACID], the half-maximal activity concentration (AC50) in experiment [1] is greater than 30 µM.
`C=C(C)CNc1ccc(C(C)C(=O)O)cc1` (centres undefined) [ALMINOPROFEN] showed an AC50 in experiment [1] greater than 30 µM.
On the same count and under the same terms, the result for `C[C@H]1CN(C[C@H](Cc2ccccc2)C(=O)NCC(=O)O)CC[C@@]1(C)c1cccc(O)c1` [ALVIMOPAN] reads greater than 30 µM; that for `O=C(O)c1ccccc1` [BENZOIC ACID], greater than 30 µM.
As to `Cc1nc(Nc2ncc(C(=O)Nc3c(C)cccc3Cl)s2)cc(N2CCN(CCO)CC2)n1` [DASATINIB], the AC50 in experiment [2] is greater than 30 µM; in experiment [3], 21.5 µM; in [4], greater than 30 µM; in experiment [5], greater than 10 µM; in experiment [6] it was greater than 30 µM; in [7], greater than 30 µM. Besides, the AC50 in experiment [8] is greater than 30 µM; in experiment [9], greater than 30 µM; in [10] it was greater than 30 µM; in [11] it was 6.3 µM; in [12], greater than 10 µM; in experiment [13], greater than 10 µM.
`C[C@H]1O[C@@H](O[C@H]2CC[C@@]3(C)[C@H](CC[C@@H]4[C@@H]3C[C@@H](O)[C@]3(C)[C@@H](C5=CC(=O)OC5)CC[C@]43O)C2)C[C@H](O)[C@@H]1O[C@H]1C[C@H](O)[C@H](O[C@H]2C[C@H](O)[C@H](O[C@@H]3O[C@H](CO)[C@@H](O)[C@H](O)[C@H]3O)[C@@H](C)O2)[C@@H](C)O1` [DESLANOSIDE] displayed a concentration at half-maximal activity (AC50) in [1] greater than 30 µM.
For the compound `CC(C(=O)O)c1cccc(Oc2ccccc2)c1` (centres undefined) [FENOPROFEN], the concentration at half-maximal activity (AC50) in experiment [1] was greater than 30 µM.
The same measure, in the same setting: to `CC1(C)O[C@@H]2C[C@H]3[C@@H]4C[C@H](F)C5=CC(=O)C=C[C@]5(C)[C@@]4(F)[C@@H](O)C[C@]3(C)[C@]2(C(=O)CO)O1` [FLUOCINOLONE ACETONIDE] belongs greater than 30 µM; to `O=C(O)P(=O)(O)O` [FOSCARNET], greater than 30 µM.
In turn, `N=C(N)N/N=C/c1c(Cl)cccc1Cl` [GUANABENZ] had an AC50 in experiment [1] greater than 30 µM.
The same measure, in the same setting: the result for `C[N+](C)(CCCCCC[N+](C)(C)C1c2ccccc2-c2ccccc21)C1c2ccccc2-c2ccccc21` [HEXAFLUORENIUM] reads greater than 30 µM.
The same measure, in the same setting: the result for `CCCCC(CC)CN1CN(CC(CC)CCCC)CC(C)(N)C1` (centres undefined) [HEXETIDINE] reads greater than 30 µM.
Still for that read-out and setting: to `Cc1cc(=O)oc2cc(O)ccc12` [HYMECROMONE] belongs 25.4 µM.
Consider `CCCCCCCN(CC)CCCC(O)c1ccc(NS(C)(=O)=O)cc1` (centres undefined) [IBUTILIDE], for which the AC50 in experiment [2], in experiment [3], in [4], in experiment [5], in [6] and in [7] was greater than 30 µM throughout. The AC50 is greater than 30 µM in experiment [8]; 22 µM in experiment [9]; greater than 30 µM in experiment [10]; greater than 30 µM in experiment [11]; greater than 30 µM in experiment [12]; greater than 30 µM in experiment [13].
`COc1c2occc2c(OC)c2c(=O)cc(C)oc12` [KHELLIN] gave a concentration at half-maximal activity (AC50) in experiment [1] greater than 30 µM.
Same read-out and setting: the result for `CC(C)[C@@H]1CC[C@@H](C)C[C@H]1O` [LEVOMENTHOL] reads greater than 30 µM.
Consider `CC[C@H](C)C(=O)O[C@H]1C[C@@H](C)C=C2C=C[C@H](C)[C@H](CC[C@@H]3C[C@@H](O)CC(=O)O3)[C@H]21` [LOVASTATIN], for which the concentration at half-maximal activity (AC50) in experiment [2] was greater than 30 µM; in experiment [3], 28.5 µM; in experiment [4], greater than 30 µM; in experiment [5] it was greater than 10 µM; in [6], greater than 10 µM; in experiment [7], greater than 30 µM. The AC50 in [8] is greater than 30 µM; in experiment [9] it was greater than 10 µM; in [10] it was greater than 10 µM; in experiment [11], 23 µM; in experiment [12] it was greater than 10 µM; in [13], 12 µM.
`COC(=O)[C@@H](N)Cc1ccc(O)c(O)c1` [MELEVODOPA] registered an AC50 in [1] greater than 30 µM.
Still for that read-out and setting: to `C[N+]1(C)CCCC(OC(=O)C(O)(c2ccccc2)c2ccccc2)C1` (centres undefined) [MEPENZOLATE] belongs greater than 30 µM.
Regarding `Cn1cc(C(=O)[C@@H]2CCc3nc[nH]c3C2)c2ccccc21` [RAMOSETRON], the half-maximal activity concentration (AC50) in experiment [2], in [3], in experiment [4], in experiment [5], in experiment [6] and in experiment [7] was greater than 30 µM throughout. Besides, the half-maximal activity concentration (AC50) in experiment [8] was greater than 30 µM; in [9], greater than 30 µM; in experiment [10], greater than 30 µM; in experiment [11] it was 20 µM; in experiment [12], 17 µM; in experiment [13], greater than 30 µM.
On to `CN(CCOc1ccc(CC2SC(=O)NC2=O)cc1)c1ccccn1` (centres undefined) [ROSIGLITAZONE], for which the AC50 in experiment [2], in experiment [3], in [4], in experiment [5], in [6] and in experiment [7] was greater than 30 µM in each case. The half-maximal activity concentration (AC50) in experiment [8] was greater than 30 µM; in experiment [9], 22 µM; in experiment [10], greater than 30 µM; in experiment [11], 14 µM; in experiment [12], greater than 30 µM; in experiment [13], greater than 30 µM.
`CC(C)[C@H](N)C(=O)OCCOCn1cnc2c(=O)[nH]c(N)nc21` [VALACYCLOVIR]: the AC50 in [2] was greater than 30 µM; in experiment [3], greater than 30 µM; in [4], greater than 30 µM; in experiment [5], greater than 10 µM; in [6], greater than 10 µM; in experiment [7] it was greater than 30 µM. The AC50 in [8] was greater than 30 µM; in experiment [9], greater than 10 µM; in [10], greater than 10 µM; in experiment [11] it was greater than 10 µM; in experiment [12] it was greater than 10 µM; in experiment [13], greater than 30 µM.
